Tests used:
[1] = test system: noncancerous human dermal fibroblasts (NHDF); test: CellTiter-Glo cytotoxicity assay, NHDF; assay type: cell-based; conditions: top concentration 10 μM
Protocol: (§1) All the titled nucleosides 14a–g were tested for their in vitro cytotoxic activity. The following cancer cell lines were used for the study: A549 (lung cancer), CCRF-CEM (acute T-lymphoblastic leukemia), HCT116 and HCT116p53^– (colon carcinoma, parental and p53 deficient), K562 (chronic myelogenous leukemia), and U2OS (bone osteosarcoma) using a colorimetric MTS assay.[25] Additionally, HeLa (cervical cancer), HepG2 (hepatocellular liver carcinoma), and HL60 (acute promyelocytic leukemia) cell lines were tested using the luminescent CellTiter-Glo assay. For comparison, nonmalignant fibroblast cell lines (BJ and MRC-5) were included in the MTS assay, whereas noncancerous human dermal fibroblasts (NHDF) were assessed with the CellTiter-Glo assay.[26] Initial screenings were done at 50 μM concentration for the MTS assay and 10 μM for the CellTiter-Glo assay.
(§2) Unless otherwise stated, all reactions were carried out under an argon atmosphere. An oil bath was used for reactions requiring heating. Thin-layer chromatography (TLC) was performed on Merck silica gel 60 F-254 aluminum sheets. Visualization was obtained by UV light (λmax = 254 or 366 nm). High-performance flash chromatography (HPFC) was conducted with a Combi Flash Rf instrument from Teledyne Isco Inc. using SiO2 (particle size 0.040–0.063 mm, 230–400 mesh) from Fluorochem in refillable flash columns or HP C18 Redi Sep Rfgold flash columns with the solvent gradient indicated in the corresponding procedures. Preparative high-pressure liquid chromatography (prep. HPLC) was performed on a Waters 2535 Quaternary Gradient System with a fraction collector. Melting points (m.p.) were measured by Bohunka Šperlichová at Charles University Prague on a Büchi Melting Point B-545 apparatus using open glass capillaries and are uncorrected. Optical rotation of final nucleosides was measured by the analytical laboratory at IOCB Prague using an AUTOPOL IV automatic polarimeter from Rudolph Research Analytical at 20 °C and 589 nm. The sample concentration c is given in g mL^–1. ^1H and ^13C{^1H} NMR spectra were measured on a Bruker Avance III 500 MHz spectrometer at 25 °C in CDCl3 referenced to the residual solvent signal (δH = 7.26 ppm, δC = 77.16 ppm), in deuterated dimethyl sulfoxide (DMSO-d6) referenced to the residual solvent signal (δH = 2.50 ppm, δC = 39.52 ppm], or in D2O with tBuOH-d10 as the external standard [δH = 1.25 ppm, δC = 31.6 ppm]. ^31P NMR NMR spectra were referenced externally to the signal of H3PO4. Coupling constants (J) are given in Hz, and the multiplets are described as s (singlet), d (doublet), t (triplet), q (quartet), m (multiplet), and b (broad). ^13C{^1H} NMR experiments were broadband proton-decoupled and were performed using APT pulse sequence. DFQ-COSY, HSQC, and HMBC experiments were used to assign the ^1H and ^13C NMR signals where required. ROESY experiments were used to confirm the relative stereochemistry of nucleosides 11 and 12. To simplify the assignment, the benzoyl group attached to the 2′-hydroxy group of the ribofuranose ring was given the letter A, the one attached to the 3′-hydroxy group is considered B, and the benzoyl group at 5′-OH is called C (Figure 3). All spectra can be found in Supporting Information S6. In the ROESY spectra for nucleosides 11, 12-β, and 12-α, the important relations for the determination of the stereochemistry are highlighted. Infrared spectra (IR) were recorded on a Bruker ALPHA FT-IR spectrometer with a single-reflection Platinum ATR module. The compounds were measured in their initial state of appearance at 20 °C, and their absorption bands were reported in wavenumbers (ṽ) in the range between 4000 and 400 cm^–1. Intensities are described as strong (s), medium (m), and weak (w). UV/vis spectra were measured on a Varian Cary 100 Bio UV–visible spectrophotometer in the range 250–800 nm using transparent 1.5 mL quartz cuvettes. Fluorescence spectra were recorded on a Fluoromax 4 spectrofluorimeter from HORIBA Scientific. […]

[2] = test system: BJ; test: MTS cytotoxicity assay, BJ fibroblasts; assay type: cell-based; conditions: Homo sapiens; nonmalignant fibroblasts BJ; top concentration 50 μM
Protocol: as §1, §2

[3] = test system: CCRF-CEM (acute T-lymphoblastic leukemia); test: MTS cytotoxicity assay, CCRF-CEM; assay type: cell-based; conditions: for IC50: Homo sapiens
Protocol: as §1, §2

[4] = test system: MRC-5; test: MTS cytotoxicity assay, MRC-5 fibroblasts; assay type: cell-based; conditions: Homo sapiens, MRC5; nonmalignant fibroblasts MRC-5; top concentration 50 μM
Protocol: as §1, §2

[5] = test system: HeLa (cervical cancer); test: CellTiter-Glo cytotoxicity assay, HeLa; assay type: cell-based; conditions: Homo sapiens, top concentration 10 μM
Protocol: as §1, §2

[6] = test system: K562 (chronic myelogenous leukemia); test: MTS cytotoxicity assay, K562; assay type: cell-based; conditions: Homo sapiens
Protocol: as §1, §2

[7] = test system: U2OS (bone osteosarcoma); test: MTS cytotoxicity assay, U2OS; assay type: cell-based; conditions: Homo sapiens
Protocol: as §1, §2

[8] = test system: HCT116 (colon carcinoma, parental); test: MTS cytotoxicity assay, HCT116; assay type: cell-based; conditions: Homo sapiens, HCT-116
Protocol: as §1, §2

[9] = test system: HL60 (acute promyelocytic leukemia); test: CellTiter-Glo cytotoxicity assay, HL60; assay type: cell-based; conditions: Homo sapiens, HL-60, top concentration 10 μM
Protocol: as §1, §2

[10] = test system: HepG2 (hepatocellular liver carcinoma); test: CellTiter-Glo cytotoxicity assay, HepG2; assay type: cell-based; conditions: Homo sapiens, top concentration 10 μM
Protocol: as §1, §2

[11] = test system: HCT116p53– (colon carcinoma, p53 deficient); test: MTS cytotoxicity assay, HCT116p53–; assay type: cell-based
Protocol: as §1, §2

[12] = test system: A549 (lung cancer); test: MTS cytotoxicity assay, A549; assay type: cell-based; conditions: Homo sapiens
Protocol: as §1, §2

[13] = test system: cancer cell lines and nonmalignant fibroblast cell lines; test: In vitro cytotoxic activity across the whole cell line panel (MTS and CellTiter-Glo); assay type: cell-based; conditions: for cytotoxicity against nonmalignant cell lines BJ, MRC-5, and NHDF (in words): MRC-5, NHDF; for cytotoxic activity across tested cell lines (in words): whole panel of tested cell lines
Protocol: as §1, §2

## OC[C@H]1O[C@@H](n2c3ccc4ncccc4c3c3c(-c4cc5ccccc5o4)ncnc32)[C@H](O)[C@@H]1O [14b, 11-(Benzofuran-2-yl)-7-(β-D-ribofuranosyl)pyrimido[5′,4′:4,5]pyrrolo[3,2-f]quinoline]
[1]
  IC50: > 10 µM
[2]
  IC50: > 50 µM
[3]
  activity against the CCRF-CEM leukemia line (in words): weak activity
  IC50: 18.6 µM
[4]
  IC50: > 50 µM
[5]
  IC50: > 10 µM
[6]
  IC50: > 50 µM
[7]
  IC50: > 50 µM
other
  melting point: 124 °C
[8]
  IC50: 36 µM
[9]
  IC50: > 10 µM
[10]
  IC50: 2.8 µM
[11]
  IC50: 43.2 µM
[12]
  IC50: > 50 µM

## Cc1ncnc2c1c1c3cccnc3ccc1n2[C@@H]1O[C@H](CO)[C@@H](O)[C@H]1O [14c, 11-Methyl-7-(β-D-ribofuranosyl)pyrimido[5′,4′:4,5]pyrrolo[3,2-f]quinoline]
[1]
  IC50: > 10 µM
[2]
  IC50: > 50 µM
[3]
  IC50: 6.5 µM
[4]
  IC50: > 50 µM
[5]
  IC50: > 10 µM
[6]
  IC50: 11.9 µM
[13]
  cytotoxicity against nonmalignant cell lines BJ, MRC-5, and NHDF (in words): no cytotoxicity
  cytotoxic activity across tested cell lines (in words): moderate cytotoxic activity
[7]
  IC50: 13.1 µM
other
  melting point: 256 °C
[8]
  IC50: 17 µM
[9]
  IC50: 6.7 µM
[10]
  IC50: > 10 µM
[11]
  IC50: 17 µM
[12]
  IC50: 26.4 µM

## CN(C)c1ncnc2c1c1c3cccnc3ccc1n2[C@@H]1O[C@H](CO)[C@@H](O)[C@H]1O [14d, 11-(N,N-Dimethylamino)-7-(β-D-ribofuranosyl)pyrimido[5′,4′:4,5]pyrrolo[3,2-f]quinoline]
[1]
  IC50: > 10 µM
[2]
  IC50: > 50 µM
[3]
  IC50: > 50 µM
[4]
  IC50: > 50 µM
[5]
  IC50: > 10 µM
[6]
  IC50: > 50 µM
[13]
  cytotoxic activity across tested cell lines (in words): did not show any cytotoxicity whatsoever
[7]
  IC50: > 50 µM
other
  melting point: 240 °C
[8]
  IC50: > 50 µM
[9]
  IC50: > 10 µM
[10]
  IC50: > 10 µM
[11]
  IC50: > 50 µM
[12]
  IC50: > 50 µM

## COc1ncnc2c1c1c3cccnc3ccc1n2[C@@H]1O[C@H](CO)[C@@H](O)[C@H]1O [14f, 11-Methoxy-7-(β-D-ribofuranosyl)pyrimido[5′,4′:4,5]pyrrolo[3,2-f]quinoline]
[1]
  IC50: > 10 µM
[2]
  IC50: > 50 µM
[3]
  IC50: 8 µM
[4]
  IC50: > 50 µM
[5]
  IC50: > 10 µM
[6]
  IC50: 40.2 µM
[13]
  cytotoxicity against nonmalignant cell lines BJ, MRC-5, and NHDF (in words): no cytotoxicity
  cytotoxic activity across tested cell lines (in words): moderate cytotoxic activity
[7]
  IC50: 17.3 µM
other
  melting point: 190 to 205 °C (dec.)
[8]
  IC50: 9.8 µM
[9]
  IC50: 5.2 µM
[10]
  IC50: > 10 µM
[11]
  IC50: 23.1 µM
[12]
  IC50: 27.4 µM

## CSc1ncnc2c1c1c3cccnc3ccc1n2[C@@H]1O[C@H](CO)[C@@H](O)[C@H]1O [14g, 11-Methylthio-7-(β-D-ribofuranosyl)pyrimido[5′,4′:4,5]pyrrolo[3,2-f]quinoline]
[1]
  IC50: > 10 µM
[2]
  IC50: 36.8 µM
[3]
  IC50: 5.1 µM
[4]
  IC50: 36.8 µM
[5]
  IC50: > 10 µM
[6]
  IC50: 18.6 µM
[13]
  cytotoxic activity across tested cell lines (in words): moderate cytotoxic activity
[7]
  IC50: 15 µM
other
  melting point: 228 to 242 °C (dec.)
[8]
  IC50: 9.3 µM
[9]
  IC50: 9.3 µM
[10]
  IC50: > 10 µM
[11]
  IC50: 16.2 µM
[12]
  IC50: 17 µM

## Nc1ncnc2c1c1c3cccnc3ccc1n2[C@@H]1O[C@H](CO)[C@@H](O)[C@H]1O [14e, 11-Amino-7-(β-D-ribofuranosyl)pyrimido[5′,4′:4,5]pyrrolo[3,2-f]quinoline]
[1]
  IC50: > 10 µM
[2]
  IC50: > 50 µM
[3]
  IC50: 8.5 µM
[4]
  IC50: > 50 µM
[5]
  IC50: > 10 µM
[6]
  IC50: 10 µM
[13]
  cytotoxicity against nonmalignant cell lines BJ, MRC-5, and NHDF (in words): no cytotoxicity
  cytotoxic activity across tested cell lines (in words): moderate cytotoxic activity
[7]
  IC50: 17.1 µM
other
  melting point: 210 to 235 °C (dec.)
[8]
  IC50: 18.9 µM
[9]
  IC50: 5.2 µM
[10]
  IC50: 8.6 µM
[11]
  IC50: 17.3 µM
[12]
  IC50: > 50 µM

## OC[C@H]1O[C@@H](n2c3ccc4ncccc4c3c3c(-c4ccco4)ncnc32)[C@H](O)[C@@H]1O [14a, 11-(Furan-2-yl)-7-(β-D-ribofuranosyl)pyrimido[5′,4′:4,5]pyrrolo[3,2-f]quinoline]
[1]
  IC50: > 10 µM
[2]
  IC50: > 50 µM
[3]
  activity against the CCRF-CEM leukemia line (in words): weak activity
  IC50: 38.5 µM
[4]
  IC50: > 50 µM
[5]
  IC50: > 10 µM
[6]
  IC50: > 50 µM
[7]
  IC50: > 50 µM
[8]
  IC50: > 50 µM
[9]
  IC50: > 10 µM
[10]
  IC50: > 10 µM
[11]
  IC50: > 50 µM
[12]
  IC50: > 50 µM

Source: publication PMC11080019, “Synthesis and Biological Profiling of Quinolino-Fused 7-Deazapurine Nucleosides” (ACS Omega, 2024)
